Measurements as given in patent US12233161B1, “Lipids and lipid nanoparticle formulations” (LONGUIDE BIOPHARMA CORPORATION, priority 2024, dated 2025).

Test system: mice
Assay: In vivo delivery of FLuc-mRNA lipid nanoparticles in mice, in vivo imaging (IVIS)
Conditions: for % of organ targeting / IVIS: Fluc-mRNA LNP, formulation, molar ratio and N/P as in the table; for organ targeting specificity (spleen or lung), in words: Table 3, Fluc-mRNA, various formulations
Procedure: After the preparation was completed, the preparation was injected intramuscularly (mice rectus femoris muscle of the thigh), intravenously (mice tail vein), or intraperitoneal injection or subcutaneous injection (subcutaneous on the back), with approximately 75 μL per mouse, for a total of 3 mice. After a certain time of injection, in vivo imaging (PerkinElmer, IVIS Lumina III) was performed. 10-15 minutes before imaging, 200 μL of 15 mg/mL D-Luciferin working solution was injected intraperitoneally, and the imaging analysis was performed using an in vivo imager.

CCCCCCCC(CCCCCCC)OC(=O)CCCNC(=O)C(O)CN(CCCN(C)CCCN(CC(O)C(=O)NCCCC(=O)OC(CCCCCCC)CCCCCCC)CC(O)C(=O)NCCCC(=O)OC(CCCCCCC)CCCCCCC)CC(O)C(=O)NCCCC(=O)OC(CCCCCCC)CCCCCCC (stereo not drawn) [Compound L0382]
% of organ targeting (route IM, organ: liver): 35.27%
IVIS (route IM, organ: liver): 5.75E+04
% of organ targeting (route IM, organ: lung): 7.39%
IVIS (route IM, organ: lung): 1.20E+04
IVIS (route IM, organ: muscle): 4.83E+07
% of organ targeting (route IM, organ: spleen): 57.34%
IVIS (route IM, organ: spleen): 9.34E+04
IVIS (route IV, organ: body): 1.60E+09
% of organ targeting (route IV, organ: liver): 67.69%
IVIS (route IV, organ: liver): 3.25E+08
% of organ targeting (route IV, organ: lung): 9.82%
IVIS (route IV, organ: lung): 4.72E+07
% of organ targeting (route IV, organ: spleen): 22.49%
IVIS (route IV, organ: spleen): 1.08E+08

CCCCCCCC(CCCCCCC)OC(=O)CCCNC(=O)C(O)CN(CCN(C)CCN(CC(O)C(=O)NCCCC(=O)OC(CCCCCCC)CCCCCCC)CC(O)C(=O)NCCCC(=O)OC(CCCCCCC)CCCCCCC)CC(O)C(=O)NCCCC(=O)OC(CCCCCCC)CCCCCCC (stereo not drawn) [Compound L0383]
% of organ targeting (route IM, organ: liver): 29.05%
IVIS (route IM, organ: liver): 1.91E+05
% of organ targeting (route IM, organ: lung): 10.07%
IVIS (route IM, organ: lung): 6.63E+04
IVIS (route IM, organ: muscle): 1.78E+08
% of organ targeting (route IM, organ: spleen): 60.88%
IVIS (route IM, organ: spleen): 4.01E+05
IVIS (route IV, organ: body): 2.00E+09
% of organ targeting (route IV, organ: liver): 68.14%
IVIS (route IV, organ: liver): 4.62E+08
% of organ targeting (route IV, organ: lung): 2.23%
IVIS (route IV, organ: lung): 1.52E+07
% of organ targeting (route IV, organ: spleen): 29.63%
IVIS (route IV, organ: spleen): 2.01E+08
organ targeting specificity (spleen or lung), in words: strong targeting specificity to deliver to spleen

CCCCCCCC(CCCCCCC)OC(=O)CCCNC(=O)C(O)CN(CCCN(CC(O)C(=O)NCCCC(=O)OC(CCCCCCC)CCCCCCC)CC(O)C(=O)NCCCC(=O)OC(CCCCCCC)CCCCCCC)CCCN(CC(O)C(=O)NCCCC(=O)OC(CCCCCCC)CCCCCCC)CC(O)C(=O)NCCCC(=O)OC(CCCCCCC)CCCCCCC (stereo not drawn) [Compound L0384]
% of organ targeting (route IM, organ: liver): 29.97%
IVIS (route IM, organ: liver): 2.35E+05
% of organ targeting (route IM, organ: lung): 13.02%
IVIS (route IM, organ: lung): 1.02E+05
IVIS (route IM, organ: muscle): 2.75E+07
% of organ targeting (route IM, organ: spleen): 57.01%
IVIS (route IM, organ: spleen): 4.47E+05
IVIS (route IV, organ: body): 4.54E+08
% of organ targeting (route IV, organ: liver): 54.57%
IVIS (route IV, organ: liver): 1.50E+08
% of organ targeting (route IV, organ: lung): 0.39%
IVIS (route IV, organ: lung): 1.09E+06
% of organ targeting (route IV, organ: spleen): 45.03%
IVIS (route IV, organ: spleen): 1.24E+08
organ targeting specificity (spleen or lung), in words: strong targeting specificity to deliver to spleen

CCCCCCCCCCOC(=O)CCCNC(=O)C(O)CN(CCCN(C)CCCN(CC(O)C(=O)NCCCC(=O)OCCCCCCCCCC)CC(O)C(=O)NCCCC(=O)OCCCCCCCCCC)CC(O)C(=O)NCCCC(=O)OCCCCCCCCCC (stereo not drawn) [Compound L0385]
IVIS (route IM, organ not given): 1.14E+06
IVIS (route IV, organ: body): 8.17E+07
% of organ targeting (route IV, organ: liver): 0.90%
IVIS (route IV, organ: liver): 2.51E+06
% of organ targeting (route IV, organ: lung): 98.40%
IVIS (route IV, organ: lung): 2.74E+08
% of organ targeting (route IV, organ: spleen): 0.70%
IVIS (route IV, organ: spleen): 1.94E+06
organ targeting specificity (spleen or lung), in words: more selective towards the lung

CCCCCCCCCCOC(=O)CCCNC(=O)C(O)CN(CCN(C)CCN(CC(O)C(=O)NCCCC(=O)OCCCCCCCCCC)CC(O)C(=O)NCCCC(=O)OCCCCCCCCCC)CC(O)C(=O)NCCCC(=O)OCCCCCCCCCC (stereo not drawn) [Compound L0386]
IVIS (route IM, organ not given): 1.91E+05
IVIS (route IV, organ: body): 6.49E+07
% of organ targeting (route IV, organ: liver): 1.32%
IVIS (route IV, organ: liver): 2.54E+06
% of organ targeting (route IV, organ: lung): 96.51%
IVIS (route IV, organ: lung): 1.86E+08
% of organ targeting (route IV, organ: spleen): 2.17%
IVIS (route IV, organ: spleen): 4.18E+06
organ targeting specificity (spleen or lung), in words: more selective towards the lung

CCCCCCCCCCOC(=O)CCCNC(=O)C(O)CN(CCCN(CC(O)C(=O)NCCCC(=O)OCCCCCCCCCC)CC(O)C(=O)NCCCC(=O)OCCCCCCCCCC)CCCN(CC(O)C(=O)NCCCC(=O)OCCCCCCCCCC)CC(O)C(=O)NCCCC(=O)OCCCCCCCCCC (stereo not drawn) [Compound L0387]
IVIS (route IM, organ not given): 1.15E+05
IVIS (route IV, organ not given): 5.23E+05

CCCCCCCCCCCCNC(=O)C(CN(CCCN(C)CCCN(CC(OC(C)=O)C(=O)NCCCCCCCCCCCC)CC(OC(C)=O)C(=O)NCCCCCCCCCCCC)CC(OC(C)=O)C(=O)NCCCCCCCCCCCC)OC(C)=O (stereo not drawn) [Compound L0388]
IVIS (route IM, organ not given): 1.49E+07
IVIS (route IV, organ: body): 1.49E+08
% of organ targeting (route IV, organ: liver): 22.33%
IVIS (route IV, organ: liver): 2.37E+07
% of organ targeting (route IV, organ: lung): 1.64%
IVIS (route IV, organ: lung): 1.74E+06
% of organ targeting (route IV, organ: spleen): 76.03%
IVIS (route IV, organ: spleen): 8.08E+07
